The assay deals with yeast cells. As to the kind of experiment: MTT assay using transformed E. coli, yeast cells and Daun02 as the prodrug. The class given is cell-based. Here is the method: In an exemplary embodiment, E. coli BL21 cells were transformed with the pSV-β-Galactosidase plasmid which contains a gene for beta-gal (available from Promega, Wisconsin, USA). Other types of bacteria and differently configured plasmids can also be used. Yeast can act as a eukaryotic cell model for cancer cells. Yeast cells contain mitochondria and a number of proteins homologous to those in humans. A MTT assay was performed using the transformed E. coli, yeast cells, and Daun02 as the prodrug. MTT is a tetrazolium dye which is converted into an insoluble purple-colored product (formazan) by live cells. The presence of formazan was measured spectrophotometrically. […] FIGS. 2A and 2B illustrate results of studies in which growing yeast cells were exposed to transformed E. coli BL21 cells and the prodrug Daun02. Bacteria and yeast were cultured over night and allowed to grow for 3 hours to be in optimal linear growth phase and samples were incubated together for approximately 5.5 or 10 hours in a 96 well microwell plate. The antibiotic kanamycin was added to all sample wells to reduce bacterial background signal. MTT dye was then added to wells and samples were incubated for three hours. A solubilization solution was then added, incubated for one hour, and the optical density was measured at 570 nm with a microplate reader. The absorbance at 570 nm of bacteria-only and bacteria and yeast-only samples were also measured. […] FIGS. 2A and 2B display results from different treatment times: 5.5 hours and 10 hours, respectively. […] Samples C and D contained beta-gal expressing bacteria, prodrug, and yeast cells. […] The length of time can be increased or decreased to increase the effectiveness of the treatment. […] A 2-Sample T-Test between the control sample and Sample C in the 10 hour experiment returned a p-value of 0.00296. […] Both p-values are smaller than the alpha level of 0.05 chosen before experimentation.
For orientation: Tetrazolium dyes change colour on reduction, which living cells bring about.

Turning to `COc1cccc2c1C(=O)c1c(O)c3c(c(O)c1C2=O)C[C@@](O)(C(C)=O)C[C@@H]3O[C@H]1C[C@H](NC(=O)OCc2ccc(O[C@@H]3O[C@H](CO)[C@H](O)[C@H](O)[C@H]3O)c([N+](=O)[O-])c2)[C@H](O)[C@H](C)O1` [Daun02, N-[4″-(β-galactopyranosyl)-3″-nitrobenzyloxycarbonyl]daunomycin], the “MTT absorbance at 570 nm (yeast cell survival)” value by setting is: (Sample C: 2.5 μM Daun02 with beta-gal expressing E. coli BL21, 10 hours, p-value 0.00296 vs control) “yeast cell death”; (Sample D: 5 μM Daun02 with beta-gal expressing E. coli BL21, 5.5 hours, bacterial background subtracted) “low absorption values”; (Sample D: 5 μM Daun02 with beta-gal expressing E. coli BL21, 10 hours, p-value 0.00593 vs control) “yeast cell death”; (Samples A and B: yeast and prodrug, no bacteria (no added beta-gal enzyme), 5.5 and 10 hours) “close to the control values”.

The values are drawn from patent publication US20140341853A1, “Bacteria-Mediated Therapy for Cancer” (priority 2013, published 2014).
